We go through 40 compounds from patent US20200048259A1, “KDM5 INHIBITORS” (priority 2016, published 2020).

Where only a bound is given, the exact number is not on record here.

In one test the target is T1, Full-length KDM5B enzyme (Homo sapiens, UniProt Q9UGL1).
T1 construct: recombinant protein from baculovirus-transfected Sf21 cells: full-length KDM5B; MW=176.825 kDa; host or cells: baculovirus-transfected Sf21 insect cells
T1 sequence (Q9UGL1 whole entry): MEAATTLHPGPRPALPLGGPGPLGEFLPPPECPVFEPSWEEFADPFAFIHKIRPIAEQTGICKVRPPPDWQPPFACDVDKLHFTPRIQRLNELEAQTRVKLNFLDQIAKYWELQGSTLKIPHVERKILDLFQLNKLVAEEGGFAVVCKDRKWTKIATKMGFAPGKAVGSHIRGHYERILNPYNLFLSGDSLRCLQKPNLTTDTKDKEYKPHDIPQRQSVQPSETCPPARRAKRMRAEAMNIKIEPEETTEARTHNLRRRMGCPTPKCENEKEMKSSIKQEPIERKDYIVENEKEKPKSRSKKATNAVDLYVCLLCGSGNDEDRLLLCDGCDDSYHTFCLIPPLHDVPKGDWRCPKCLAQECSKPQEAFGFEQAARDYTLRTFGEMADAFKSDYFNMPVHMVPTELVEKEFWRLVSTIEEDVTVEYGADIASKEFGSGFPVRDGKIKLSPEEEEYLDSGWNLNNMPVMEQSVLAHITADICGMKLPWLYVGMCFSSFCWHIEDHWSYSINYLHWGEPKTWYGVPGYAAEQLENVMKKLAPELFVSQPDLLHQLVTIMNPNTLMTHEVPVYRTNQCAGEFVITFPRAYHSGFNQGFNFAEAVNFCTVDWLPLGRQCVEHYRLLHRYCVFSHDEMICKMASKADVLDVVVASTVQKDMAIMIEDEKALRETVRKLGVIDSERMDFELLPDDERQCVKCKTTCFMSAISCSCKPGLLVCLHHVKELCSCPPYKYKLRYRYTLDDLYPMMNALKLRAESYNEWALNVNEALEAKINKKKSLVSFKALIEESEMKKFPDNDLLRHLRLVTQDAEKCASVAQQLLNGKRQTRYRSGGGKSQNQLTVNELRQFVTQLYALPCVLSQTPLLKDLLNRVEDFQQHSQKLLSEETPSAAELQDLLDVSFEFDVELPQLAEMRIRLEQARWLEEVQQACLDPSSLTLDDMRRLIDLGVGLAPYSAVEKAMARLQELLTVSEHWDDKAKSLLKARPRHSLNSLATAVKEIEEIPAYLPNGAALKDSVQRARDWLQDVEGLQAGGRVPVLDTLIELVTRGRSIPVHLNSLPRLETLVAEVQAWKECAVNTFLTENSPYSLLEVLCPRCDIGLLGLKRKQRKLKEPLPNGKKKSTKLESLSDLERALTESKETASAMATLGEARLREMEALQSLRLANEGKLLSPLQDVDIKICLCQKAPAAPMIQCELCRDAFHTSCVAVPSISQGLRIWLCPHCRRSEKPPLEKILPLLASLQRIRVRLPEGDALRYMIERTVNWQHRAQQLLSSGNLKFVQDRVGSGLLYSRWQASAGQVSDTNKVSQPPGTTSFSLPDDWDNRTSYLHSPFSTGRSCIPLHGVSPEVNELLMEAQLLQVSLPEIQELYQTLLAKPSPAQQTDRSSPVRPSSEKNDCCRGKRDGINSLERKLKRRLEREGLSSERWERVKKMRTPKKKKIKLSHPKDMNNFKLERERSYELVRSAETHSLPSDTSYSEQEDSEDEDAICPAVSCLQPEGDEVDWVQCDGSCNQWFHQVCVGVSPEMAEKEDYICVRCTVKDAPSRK
Put plainly: KDM5B TR-FRET Enzyme Activity Assay (LANCE). It is filed as biochemical.
Settings: not given
As to the method:
KDM5B TR-FRET Enzyme Activity Assay
KDM5B enzymatic activity was determined with the LANCE (Lanthanide Chelate Excite) TR-FRET (Time-resolved fluorescence resonance energy transfer) assay. […] Following a 30 minutes compound and enzyme incubation in a humidified chamber, each reaction was initiated by the addition of 1 μL 1× assay buffer containing […] biotinylated H3K4Me3 peptide, and 500 nM α-ketoglutarate. The final reaction in each well of 5 μL consists of 5 nM KDM5B, 500 nM biotinylated-peptide, and 500 nM α-ketoglutarate. De-methylation reactions were allowed to proceed for 60 minutes. Reactions were immediately quenched by the addition of 5 μL of 2× Lance Detection Buffer (PerkinElmer) with 0.5 mM EDTA and 2 nM of Eu-anti-H3K4Mel-2 antibody, and 30 nM of Streptavidin-conjugated Dylight 650 detection reagents. After 60 minutes incubation with detection reagents, reaction plates were read on a PerkinElmer EnVision plate reader using standard TR-FRET protocol. Briefly, excitation of donor molecules (Eu-chelate-anti-H3K4Me1-2-antibody) with a laser light source at 337 nm produces energy that can be transferred to Dylight-650 acceptor molecules if this donor:acceptor pair is within close proximity.
Fluorescence intensity at both 665 nm (acceptor) and 615 nm (donor) are measured and a TR-FRET ratio calculated for each well (acceptor intensity/donor intensity). IC50 values were determined by 4 parameter robust fit of TR-FRET ratio values vs. (Log 10) compound concentrations.
For the compound `Cc1nc2[nH]c(C)c(Cc3ccccc3)c(=O)n2n1` [Example 7-4, 6-benzyl-2,5-dimethyl[1,2,4]triazolo[1,5-a]pyrimidin-7(4H)-one], the IC50 (in general, the concentration that gives 50% inhibition) is above 100 µM. The same measure, in the same setting: with `Cc1nc2[nH]c(C(C)C)cc(=O)n2n1` [Example 7-6, 2-methyl-5-(1-methylethyl)[1,2,4]triazolo[1,5-a]pyrimidin-7(4H)-one] the figure was above 100 µM. For `CCCCc1c(C)[nH]c2nc(C)nn2c1=O` [Example 7-8, 6-butyl-2,5-dimethyl[1,2,4]triazolo[1,5-a]pyrimidin-7(4H)-one], the IC50 was above 100 µM. `Cc1[nH]c2nc(C3CC(F)(F)C3)nn2c(=O)c1C(C)C` [Example 7-23, 2-(3,3-difluorocyclobutyl)-5-methyl-6-(1-methylethyl)[1,2,4]triazolo[1,5-a]pyrimidin-7(4H)-one] had an IC50 above 100 µM. The same measure, in the same setting: with `Cc1[nH]c2nc(-c3ccco3)nn2c(=O)c1C(C)C` [Example 7-27, 2-furan-2-yl-5-methyl-6-(1-methylethyl)[1,2,4]triazolo[1,5-a]pyrimidin-7(4H)-one] the figure was above 100 µM; with `Cc1[nH]c2nc(-c3ccccn3)nn2c(=O)c1C(C)C` [Example 7-28, 5-methyl-6-(1-methylethyl)-2-pyridin-2-yl[1,2,4]triazolo[1,5-a]pyrimidin-7(4H)-one], above 100 µM; with `Cc1[nH]c2nc(C(C)C)nn2c(=O)c1C(C)C` [Example 7-29, 5-methyl-2,6-bis(1-methylethyl)[1,2,4]triazolo[1,5-a]pyrimidin-7(4H)-one], 35.4 µM. In turn, `Cc1[nH]c2nc(N3CCOCC3)nn2c(=O)c1C(C)C` [Example 7-30, 5-methyl-6-(1-methylethyl)-2-morpholin-4-yl[1,2,4]triazolo[1,5-a]pyrimidin-7(4H)-one] came in with an IC50 above 100 µM. The same measure, in the same setting: in the case of `Cc1nc2[nH]c(C(C)(C)C)cc(=O)n2n1` [Example 7-38, 5-tert-butyl-2-methyl[1,2,4]triazolo[1,5-a]pyrimidin-7(4H)-one] it was above 100 µM.

With `Cc1nc2[nH]c(C(F)(F)C(F)(F)F)cc(=O)n2n1` [Example 7-41, 2-methyl-5-(pentafluoroethyl)[1,2,4]triazolo[1,5-a]pyrimidin-7(4H)-one], the IC50 was above 100 µM.

The same test, now with this note: 5 nM full-length KDM5B, biotinylated H3K4Me3 peptide, 500 nM α-ketoglutarate; ten point titration 100000 nM to 5.08 nM; read-out: IC50.
For the compound `CCCc1cc(=O)n2nc(C)nc2[nH]1` [Example 7-2, 2-methyl-5-propyl[1,2,4]triazolo[1,5-a]pyrimidin-7(4H)-one], the IC50 turned out to be 97 µM. On the same count and under the same terms, with `CCc1c(C)[nH]c2nc(N)nn2c1=O` [Example 7-3, 2-amino-6-ethyl-5-methyl-[1,2,4]triazolo[1,5-a]pyrimidin-7(4H)-one] the figure was 22.2 µM; with `CCc1c(C)[nH]c2nc(C)nn2c1=O` [Example 7-5, 6-ethyl-2,5-dimethyl-[1,2,4]triazolo[1,5-a]pyrimidin-7(4H)-one], 27.8 µM; with `Cc1nc2[nH]c(C)c(C)c(=O)n2n1` [Example 7-7, 2,5,6-trimethyl[1,2,4]triazolo[1,5-a]pyrimidin-7(4H)-one], 32 µM. On the same count and under the same terms, in the case of `CCc1c(C)[nH]c2nc(C(F)(F)F)nn2c1=O` [Example 7-9, 6-ethyl-5-methyl-2-(trifluoromethyl)[1,2,4]triazolo[1,5-a]pyrimidin-7(4H)-one] it was 9.09 µM. The same measure, in the same setting: in the case of `Cc1cc(=O)n2nc(-c3ccncc3)nc2[nH]1` [Example 7-10, 5-methyl-2-(pyridin-4-yl)-[1,2,4]triazolo[1,5-a]pyrimidin-7(4H)-one] it was 4.28 µM; in that of `Cc1nc2[nH]c(C(F)(F)F)cc(=O)n2n1` [Example 7-11, 2-methyl-5-(trifluoromethyl)-[1,2,4]triazolo[1,5-a]pyrimidin-7(4H)-one], 27.9 µM. Regarding `CCc1cc(=O)n2nc(C)nc2[nH]1` [Example 7-12, 5-ethyl-2-methyl-[1,2,4]triazolo[1,5-a]pyrimidin-7(4H)-one], the IC50 was 73.7 µM.

`CCOC(=O)c1[nH]c2nc(C)nn2c(=O)c1Cl` [Example 7-13, ethyl 6-chloro-2-methyl-7-oxo-4,7-dihydro[1,2,4]triazolo[1,5-a]pyrimidine-5-carboxylate]: the half-maximal inhibitory concentration (IC50) turned out to be 2.96 µM. Consider `CCc1c(C)[nH]c2nc(C(=O)OC)nn2c1=O` [Example 7-14, methyl 6-ethyl-5-methyl-7-oxo-4,7-dihydro[1,2,4]triazolo[1,5-a]pyrimidine-2-carboxylate], for which the IC50 was 34.9 µM.

Turning to `COC(=O)Cc1c(C)[nH]c2nc(C(=O)OC)nn2c1=O` [Example 7-15, methyl 6-(2-methoxy-2-oxoethyl)-5-methyl-7-oxo-4,7-dihydro[1,2,4]triazolo[1,5-a]pyrimidine-2-carboxylate], the IC50 came out at 68.1 µM. Same read-out and setting: in the case of `Cc1[nH]c2nc(N)nn2c(=O)c1C(C)C` [Example 7-16, 2-amino-5-methyl-6-(1-methylethyl)[1,2,4]triazolo[1,5-a]pyrimidin-7(4H)-one] it was 3.41 µM; in that of `Cc1[nH]c2nc(C3CC3)nn2c(=O)c1C(C)C` [Example 7-18, 2-cyclopropyl-5-methyl-6-(1-methylethyl)[1,2,4]triazolo[1,5-a]pyrimidin-7(4H)-one], 48.6 µM. For the compound `Cc1[nH]c2nc(C3CCC3)nn2c(=O)c1C(C)C` [Example 7-19, 2-cyclobutyl-5-methyl-6-(1-methylethyl)[1,2,4]triazolo[1,5-a]pyrimidin-7(4H)-one], the IC50 is 92.7 µM. Same read-out and setting: in the case of `CCc1c(-c2ccccc2)[nH]c2nc(C)nn2c1=O` [Example 7-20, 6-ethyl-2-methyl-5-phenyl[1,2,4]triazolo[1,5-a]pyrimidin-7(4H)-one] it was 3.97 µM. `Cc1nc2[nH]c(C)c(C(C)C)c(=O)n2n1` [Example 7-21, 2,5-dimethyl-6-(1-methylethyl)[1,2,4]triazolo[1,5-a]pyrimidin-7(4H)-one]: the IC50 is 7.99 µM.

`Cc1[nH]c2nc(-c3ccc(F)cc3)nn2c(=O)c1C(C)C` [Example 7-24, 2-(4-fluorophenyl)-5-methyl-6-(1-methylethyl)[1,2,4]triazolo[1,5-a]pyrimidin-7(4H)-one]: the IC50 came to 33.7 µM. On to `Cc1[nH]c2nc(-c3ccc(C(F)(F)F)cc3)nn2c(=O)c1C(C)C` [Example 7-25, 5-methyl-6-(1-methylethyl)-2-[4-(trifluoromethyl)phenyl][1,2,4]triazolo[1,5-a]pyrimidin-7(4H)-one], for which the IC50 was 67.6 µM. Same read-out and setting: with `Cc1[nH]c2nc(-c3ccccc3Cl)nn2c(=O)c1C(C)C` [Example 7-26, 2-(2-chlorophenyl)-5-methyl-6-(1-methylethyl)[1,2,4]triazolo[1,5-a]pyrimidin-7(4H)-one] the figure was 95.8 µM.

For the compound `Cc1nc2[nH]c(C)c(Cl)c(=O)n2n1` [Example 7-31, 6-chloro-2,5-dimethyl[1,2,4]triazolo[1,5-a]pyrimidin-7(4H)-one], the IC50 came to 39.2 µM. On the same count and under the same terms, in the case of `Cc1[nH]c2nc(C(F)(F)F)nn2c(=O)c1C(C)C` [Example 7-32, 5-methyl-6-(1-methylethyl)-2-(trifluoromethyl)[1,2,4]triazolo[1,5-a]pyrimidin-7(4H)-one] it was 2.07 µM; in that of `CCc1c(-c2ccn(C)n2)[nH]c2nc(C)nn2c1=O` [Example 7-33, 6-ethyl-2-methyl-5-(1-methyl-1H-pyrazol-3-yl)[1,2,4]triazolo[1,5-a]pyrimidin-7(4H)-one], 4.24 µM; in that of `Cc1[nH]c2nc(Cl)nn2c(=O)c1C(C)C` [Example 7-34, 2-chloro-5-methyl-6-(1-methylethyl)[1,2,4]triazolo[1,5-a]pyrimidin-7(4H)-one], 1.25 µM. Same read-out and setting: with `Cc1[nH]c2nc(Br)nn2c(=O)c1C(C)C` [Example 7-35, 2-bromo-5-methyl-6-(1-methylethyl)[1,2,4]triazolo[1,5-a]pyrimidin-7(4H)-one] the figure was 1.92 µM; with `Cc1nc2[nH]c(-c3ccn(C)n3)cc(=O)n2n1` [Example 7-36, 2-methyl-5-(1-methyl-1H-pyrazol-3-yl)[1,2,4]triazolo[1,5-a]pyrimidin-7(4H)-one], 25.4 µM; with `Cc1[nH]c2nc(CCCO)nn2c(=O)c1C(C)C` [Example 7-37, 2-(3-hydroxypropyl)-5-methyl-6-(1-methylethyl)[1,2,4]triazolo[1,5-a]pyrimidin-7(4H)-one], 66.5 µM. Regarding `Cc1nc2[nH]c(-c3ccc(F)cc3)cc(=O)n2n1` [Example 7-39, 5-(4-fluorophenyl)-2-methyl[1,2,4]triazolo[1,5-a]pyrimidin-7(4H)-one], the IC50 is 8.07 µM. Same read-out and setting: in the case of `Cc1nc2[nH]c(-c3ccoc3)cc(=O)n2n1` [Example 7-40, 5-furan-3-yl-2-methyl[1,2,4]triazolo[1,5-a]pyrimidin-7(4H)-one] it was 36.7 µM.

Turning to `COc1c(C(F)(F)F)[nH]c2nc(C)nn2c1=O` [Example 7-42, 6-methoxy-2-methyl-5-(trifluoromethyl)[1,2,4]triazolo[1,5-a]pyrimidin-7(4H)-one], the IC50 was 21.1 µM. The same measure, in the same setting: with `Cc1nc2[nH]c(-c3ccccn3)cc(=O)n2n1` [Example 7-43, 2-methyl-5-pyridin-2-yl[1,2,4]triazolo[1,5-a]pyrimidin-7(4H)-one] the figure was 23.2 µM.
